Reference: paper PMC7155755, “Binding of the Human 14-3-3 Isoforms to Distinct Sites in the Leucine-Rich Repeat Kinase 2” (Frontiers in Neuroscience, 2020)
Square brackets hold non-standard residues; d marks the D form. Peptide text beside a SMILES is read from it. pS = N[C@@H](COP(=O)(O)O)C(=O)O

Key:
Test in all cases: Fluorescence polarization (FP) direct binding assay
[1] = target: T1, human 14-3-3 isoform β (Homo sapiens, UniProt P31946); details: fluorescein-labeled peptide 1 nM, 20 mM MOPS pH 7, 150 mM NaCl, 0.005% CHAPS, at least three independent measurements, read-out: Binding affinity (KD) toward 14-3-3 isoform β
T1 construct: MBP (cleaved yes); made in house; host or cells: E. coli BL21DE3
T1 sequence (P31946 whole entry, canonical isoform): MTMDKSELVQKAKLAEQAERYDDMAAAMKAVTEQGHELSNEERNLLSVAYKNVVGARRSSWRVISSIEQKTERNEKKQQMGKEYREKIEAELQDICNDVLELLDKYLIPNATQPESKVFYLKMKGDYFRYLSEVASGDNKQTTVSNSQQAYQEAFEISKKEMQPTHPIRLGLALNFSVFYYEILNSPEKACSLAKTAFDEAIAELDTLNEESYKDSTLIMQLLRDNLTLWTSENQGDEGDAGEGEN
Summary of the method: (§1)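 Untagged human 14-3-3 isoforms (MBP removed) titrated from ≥5 μM down to picomolar against 1 nM fluorescein-labeled LRRK2-derived peptides, phosphorylated or not, in 20 mM MOPS pH 7, 150 mM NaCl, 0.005% CHAPS. KD from sigmoidal fit of FP (mPol) versus log protein concentration; duplicates, ≥2 independent replicates.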

[2] = target: T2, human 14-3-3 isoform ζ (Homo sapiens, UniProt P63104); details: fluorescein-labeled peptide 1 nM, 20 mM MOPS pH 7, 150 mM NaCl, 0.005% CHAPS, at least three independent measurements, read-out: Binding affinity (KD) toward 14-3-3 isoform ζ
T2 construct: MBP (cleaved yes); made in house; host or cells: E. coli BL21DE3
T2 sequence (P63104 whole entry, canonical isoform): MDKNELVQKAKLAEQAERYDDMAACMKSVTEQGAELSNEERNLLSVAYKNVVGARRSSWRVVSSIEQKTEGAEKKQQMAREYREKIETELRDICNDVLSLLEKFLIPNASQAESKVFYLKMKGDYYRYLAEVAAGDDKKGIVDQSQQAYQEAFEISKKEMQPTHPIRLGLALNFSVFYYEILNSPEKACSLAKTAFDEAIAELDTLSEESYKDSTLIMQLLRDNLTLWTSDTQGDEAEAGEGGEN
Summary of the method: as §1

[3] = target: T3, human 14-3-3 isoform η (Homo sapiens, UniProt Q04917); details: fluorescein-labeled peptide 1 nM, 20 mM MOPS pH 7, 150 mM NaCl, 0.005% CHAPS, at least three independent measurements, read-out: Binding affinity (KD) toward 14-3-3 isoform η
T3 construct: MBP (cleaved yes); made in house; host or cells: E. coli BL21DE3
T3 sequence (Q04917 whole entry, canonical isoform): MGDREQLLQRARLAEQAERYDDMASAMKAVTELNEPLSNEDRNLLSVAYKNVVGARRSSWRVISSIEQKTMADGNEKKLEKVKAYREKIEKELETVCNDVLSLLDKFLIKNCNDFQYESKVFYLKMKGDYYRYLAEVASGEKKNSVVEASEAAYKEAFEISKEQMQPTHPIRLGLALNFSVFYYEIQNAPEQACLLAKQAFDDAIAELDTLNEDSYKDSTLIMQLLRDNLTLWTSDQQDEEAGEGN
Summary of the method: as §1

[4] = target: T4, human 14-3-3 isoform θ (Homo sapiens, UniProt P27348); details: fluorescein-labeled peptide 1 nM, 20 mM MOPS pH 7, 150 mM NaCl, 0.005% CHAPS, at least three independent measurements, read-out: Binding affinity (KD) toward 14-3-3 isoform θ
T4 construct: MBP (cleaved yes); made in house; host or cells: E. coli BL21DE3
T4 sequence (P27348 whole entry, canonical isoform): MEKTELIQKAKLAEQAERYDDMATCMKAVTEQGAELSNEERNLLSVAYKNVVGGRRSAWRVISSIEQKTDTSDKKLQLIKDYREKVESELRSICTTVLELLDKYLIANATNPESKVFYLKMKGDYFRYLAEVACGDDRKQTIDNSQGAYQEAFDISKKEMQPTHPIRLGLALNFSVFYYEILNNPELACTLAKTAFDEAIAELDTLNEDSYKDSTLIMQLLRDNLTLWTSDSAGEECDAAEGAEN
Summary of the method: as §1

[5] = target: T5, human 14-3-3 isoform σ (Homo sapiens, UniProt P31947); details: fluorescein-labeled peptide 1 nM, 20 mM MOPS pH 7, 150 mM NaCl, 0.005% CHAPS, at least three independent measurements, read-out: Binding affinity (KD) toward 14-3-3 isoform σ
T5 construct: MBP (cleaved yes); made in house; host or cells: E. coli BL21DE3
T5 sequence (P31947 1-248): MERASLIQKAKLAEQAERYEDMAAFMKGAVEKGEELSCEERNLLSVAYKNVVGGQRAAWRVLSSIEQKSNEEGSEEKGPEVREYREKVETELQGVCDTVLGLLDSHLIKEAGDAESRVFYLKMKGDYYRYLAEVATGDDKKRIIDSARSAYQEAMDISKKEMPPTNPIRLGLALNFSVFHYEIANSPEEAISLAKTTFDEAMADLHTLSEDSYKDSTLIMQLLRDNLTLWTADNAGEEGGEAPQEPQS
Summary of the method: as §1

[6] = target: T6, human 14-3-3 isoform ϵ (Homo sapiens, UniProt P62258); details: fluorescein-labeled peptide 1 nM, 20 mM MOPS pH 7, 150 mM NaCl, 0.005% CHAPS, bound given in μM, read-out: Binding affinity (KD) toward 14-3-3 isoform ϵ
T6 construct: MBP (cleaved yes); made in house; host or cells: E. coli BL21DE3
T6 sequence (P62258 1-255): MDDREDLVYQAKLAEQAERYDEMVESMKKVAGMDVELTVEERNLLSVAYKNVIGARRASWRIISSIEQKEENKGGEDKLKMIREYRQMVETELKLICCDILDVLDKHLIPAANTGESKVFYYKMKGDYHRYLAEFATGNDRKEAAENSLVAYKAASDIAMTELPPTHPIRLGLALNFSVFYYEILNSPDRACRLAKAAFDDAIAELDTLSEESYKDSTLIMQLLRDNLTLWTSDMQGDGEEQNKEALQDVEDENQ
Summary of the method: as §1

[7] = target: T7, human 14-3-3γ (Homo sapiens, UniProt P61981); details: fluorescein-labeled peptide 1 nM, 20 mM MOPS pH 7, 150 mM NaCl, 0.005% CHAPS, at least three independent measurements, read-out: Binding affinity (KD) toward 14-3-3 isoform γ
T7 construct: MBP (cleaved yes); made in house; host or cells: E. coli BL21DE3
T7 sequence (P61981 1-247): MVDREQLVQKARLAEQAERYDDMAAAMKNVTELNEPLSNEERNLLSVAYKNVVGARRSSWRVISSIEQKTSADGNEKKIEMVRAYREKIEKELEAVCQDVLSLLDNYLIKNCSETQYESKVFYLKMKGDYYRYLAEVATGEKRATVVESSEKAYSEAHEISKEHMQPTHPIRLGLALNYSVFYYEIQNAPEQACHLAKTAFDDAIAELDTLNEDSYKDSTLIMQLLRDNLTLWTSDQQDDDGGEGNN
Summary of the method: as §1

Kd [1]: 183 ± 25 nM
Kd [2]: 476 ± 165 nM
Kd [3]: 85 ± 10 nM
Kd [4]: 195 ± 42 nM
Kd [5]: 802 ± 261 nM
Kd [6]: > 1 µM
Kd [7]: 106 ± 4 nM
SMILES: CC[C@H](C)[C@H](NC(=O)[C@H](CC(N)=O)NC(=O)[C@H](Cc1ccccc1)NC(=O)[C@@H](N)CC(C)C)C(=O)N[C@@H](CCCCN)C(=O)N[C@@H](C)C(=O)N[C@@H](CCCNC(=N)N)C(=O)N[C@@H](C)C(=O)N[C@@H](CO)C(=O)N[C@@H](COP(=O)(O)O)C(=O)N[C@@H](CO)C(=O)N1CCC[C@H]1C(=O)N[C@H](C(=O)N[C@H](C(=O)N[C@@H](CC(C)C)C(=O)N[C@H](C(=O)NCC(=O)N[C@H](C(=O)O)[C@@H](C)O)C(C)C)[C@@H](C)CC)C(C)C [pS1444] (H-LFNIKARAS[pS]SPVILVGT-OH)
